The values that follow come from patent publication US9510521B2, “Use of abscisic acid to alter sensory characteristics of red grapes and wine” (Valent BioSciences Corporation, priority 2007, dated 2016).

In test [1] the test system is Shiraz grapes. The test is described as follows: Foliar S-ABA on Shiraz grapes about 3 weeks before veraison: grape quality at harvest and wine quality. Type of test: in vivo. The following applies: 200 ppm foliar spray approx. 3 weeks prior to veraison. The procedure: (§1) S-ABA (200 ppm) was applied by foliar spray using a standard vineyard airblast sprayer at 2000 L/ha to commercially grown Shiraz grapes approximately 3 weeks prior to initiation of veraison. The spray mix contained the surfactant/wetter Agral at 10 ml/100 L. Results reported are means of 4 replicates (grapes) and 3 replicates (wines) per treatment. Winemaking followed a standard small lot fermentation protocol with each replicate wine being made from 50 kg of harvested grapes.
However, at-harvest grape anthocyanin and wine color density and total phenolics are increased by S-ABA.

In test [2] the test system is Shiraz grapes. Kind of test: Sensory profile of Shiraz wine from S-ABA-treated fruit, 10 experienced sensory assessors. Format: in vivo, grape. The following applies: 200 ppm foliar spray, 10 assessors. The procedure: as §1
Using a nine-point hedonic scale rating (dislike=1 to like=9) the sensors judged wine from the S-ABA treatment higher than the untreated (6.2 vs. 5.0, respectively) and thus a technically better wine.

The test system of test [3] is Cabernet Sauvignon grapes. The test is described as follows: Sensory panel rating of Cabernet Sauvignon wine from S-ABA treatment. Format: in vivo, grape. Particulars: 1-5 scale, 1 = low/short, 5 = high/long. As to the method: S-ABA (200 ppm) was applied by foliar spray to Cabernet Sauvignon grapes when sugar levels were approximately 11 Be using a standard vineyard airblast sprayer at approximately 2000 L/ha. The spray mix contained the surfactant/wetter Agral at 10 ml/100 L. Wine was prepared from the treated and untreated grapes.

The subject of test [4] is Shiraz grapes. Kind of test: Sensory panel of 6 assessors, Shiraz wine, drip irrigation S-ABA. Type of test: in vivo, grape. Particulars: 0.4 grams per vine via drip irrigation. As to the method: S-ABA (0.4 grams per vine) was applied to commercially grown Shiraz grapes through the drip irrigation system at approximately 3 weeks prior to initiation of veraison. No surfactant was added to the irrigation water. Results reported are means of 3 replicates. Winemaking followed a standard small lot fermentation protocol with each replicate wine being made from 50 kg of harvested grapes.
Table 5 illustrates that S-ABA increased anthocyanin and phenolics of grape/juice at crush and wine color density and total phenolics and reduced wine hue. S-ABA had no effect on sugar, pH, or total acidity of grapes/juice at crush or on alcohol or pH of wine.

Test [5] relates to Shiraz grapes. The test is described as follows: Sensory panel of 6 assessors, Shiraz wine, foliar S-ABA at veraison. Format: in vivo, grape. The following applies: 200 ppm foliar spray at veraison. The procedure: S-ABA (200 ppm) was applied by foliar spray at veraison to commercially grown Shiraz grapes through standard agricultural spray equipment on 12 Jan. 2007. Kendeen 20 (Tween 20) was added to the spray mix at 50 ml/100 L. Reported results are means of 3 replicates. Winemaking followed a standard small lot fermentation protocol with each replicate wine being made from 50 kg of harvested grapes.

With “(S)-5-(1-hydroxy-2,6,6,-trimethyl-4-oxo-2-cyclohexen-1-yl)-3-methyl-(2Z,4E)-pentadienoic acid [S-ABA]”, the Wine hue in the test with Shiraz grapes [1] was found to be 0.56. Also, in the test on Shiraz grapes [2] (Shiraz wine sensory profile), the Aroma entry was “more intense berry aroma”; the Color result is “Increased intensity”; the Taste result is recorded as “more fruity, more acidic taste”. Moreover, the “Hedonic scale (1-dislike, 9 like)” value in the test on Shiraz grapes [2] (Shiraz wine, nine-point hedonic scale) turned out to be 6.2. Further, in test [3], the Body/fullness worked out at 1.7 and the Flavor intensity was determined as 2.7. Moreover, the “Sensory panel of 6 assessors” value in the test with Shiraz grapes [4] was “more intense fruit and was less acidic”. Further, the “Sensory panel of 6 assessors” value with Shiraz grapes [5] was “more intense fruit, spice and herbaceous flavors and more tannin”.
